{"source": "patent US12391724B2", "about": "“Polypodoside sweet flavor modifier” (Firmenich Incorporated, priority 2019, dated 2025)", "key": {"[1]": {"test_system": "human panelists (sweetness)", "assay": "paired comparison (2-AFC) taste test for sweetness with human panelists", "type": "in vivo", "description": "Test samples containing experimental compounds were presented in pairs to the human panelist and they were asked to determine which of the sample is sweeter. […] A group of 10-16 or more panelists participated in each test. Subjects refrained from eating or drinking (except water) for at least 1 hour prior to the test. Subjects rinsed with water several times to clean the mouth.\nTaste tests were performed with sucrose or HFCS as the sweetener in the presence or absence of compound. A 0.2% stock solution of compound in water with sodium bicarbonate was prepared and then this stock solution was diluted in the final sample to achieve the targeted final concentration of compound. For the sample evaluated at pH 2.8 the pH of the solution is decreased to about pH 2.8 using citric acid. Taste samples were also prepared in a low sodium phosphate buffer (pH 7.1; “LSB”) lacking sucrose or HFCS to evaluate the taste of the compound alone. Low sodium phosphate buffer consists of 0.3 mM KCl, 0.5 mM Na2HPO4, and 0.175 mM KH2PO4. Sample volumes are usually 20 ml.\nIn one paired comparison test, the panelist was presented with two different samples and asked to identify the sample which is sweeter. The samples within a paired comparison test were presented in a randomized, counterbalanced order. Panelists had up to a 1 minute delay between taste tests to clear the mouth of any tastes.\nBinomial probability tables were used to determine the probability of the correct number of responses occurring for each test at alpha=0.05\nPaired comparison taste test for sweetness (0.25 mL sample size)"}, "T1R2/T1R3 receptor": {"target": "T1, T1R2/T1R3 receptor (Homo sapiens, UniProt Q7RTX0+Q8TE23)", "T1 sequence (Q8TE23 20-839)": "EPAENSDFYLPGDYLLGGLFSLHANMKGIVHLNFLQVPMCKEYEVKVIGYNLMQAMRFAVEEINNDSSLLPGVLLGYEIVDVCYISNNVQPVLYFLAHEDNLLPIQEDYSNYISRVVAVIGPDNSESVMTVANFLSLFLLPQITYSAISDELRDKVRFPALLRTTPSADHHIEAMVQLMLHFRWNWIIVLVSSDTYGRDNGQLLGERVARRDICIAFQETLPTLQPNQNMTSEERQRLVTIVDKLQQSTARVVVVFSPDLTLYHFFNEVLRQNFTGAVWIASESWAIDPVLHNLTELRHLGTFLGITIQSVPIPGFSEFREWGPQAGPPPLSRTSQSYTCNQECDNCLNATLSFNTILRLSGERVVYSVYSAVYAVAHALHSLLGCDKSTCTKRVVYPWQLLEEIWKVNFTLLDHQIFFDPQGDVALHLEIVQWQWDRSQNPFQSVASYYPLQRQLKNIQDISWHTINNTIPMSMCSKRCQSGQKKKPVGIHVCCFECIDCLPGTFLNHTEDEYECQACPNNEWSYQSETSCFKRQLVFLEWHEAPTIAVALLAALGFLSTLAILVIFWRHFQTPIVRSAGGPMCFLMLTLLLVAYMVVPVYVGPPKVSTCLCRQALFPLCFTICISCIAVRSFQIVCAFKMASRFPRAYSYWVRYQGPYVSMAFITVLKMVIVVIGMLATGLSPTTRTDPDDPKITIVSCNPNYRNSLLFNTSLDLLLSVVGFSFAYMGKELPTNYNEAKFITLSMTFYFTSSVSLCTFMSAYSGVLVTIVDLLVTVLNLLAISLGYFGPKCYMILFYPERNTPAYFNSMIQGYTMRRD", "T1 sequence (Q7RTX0 21-852)": "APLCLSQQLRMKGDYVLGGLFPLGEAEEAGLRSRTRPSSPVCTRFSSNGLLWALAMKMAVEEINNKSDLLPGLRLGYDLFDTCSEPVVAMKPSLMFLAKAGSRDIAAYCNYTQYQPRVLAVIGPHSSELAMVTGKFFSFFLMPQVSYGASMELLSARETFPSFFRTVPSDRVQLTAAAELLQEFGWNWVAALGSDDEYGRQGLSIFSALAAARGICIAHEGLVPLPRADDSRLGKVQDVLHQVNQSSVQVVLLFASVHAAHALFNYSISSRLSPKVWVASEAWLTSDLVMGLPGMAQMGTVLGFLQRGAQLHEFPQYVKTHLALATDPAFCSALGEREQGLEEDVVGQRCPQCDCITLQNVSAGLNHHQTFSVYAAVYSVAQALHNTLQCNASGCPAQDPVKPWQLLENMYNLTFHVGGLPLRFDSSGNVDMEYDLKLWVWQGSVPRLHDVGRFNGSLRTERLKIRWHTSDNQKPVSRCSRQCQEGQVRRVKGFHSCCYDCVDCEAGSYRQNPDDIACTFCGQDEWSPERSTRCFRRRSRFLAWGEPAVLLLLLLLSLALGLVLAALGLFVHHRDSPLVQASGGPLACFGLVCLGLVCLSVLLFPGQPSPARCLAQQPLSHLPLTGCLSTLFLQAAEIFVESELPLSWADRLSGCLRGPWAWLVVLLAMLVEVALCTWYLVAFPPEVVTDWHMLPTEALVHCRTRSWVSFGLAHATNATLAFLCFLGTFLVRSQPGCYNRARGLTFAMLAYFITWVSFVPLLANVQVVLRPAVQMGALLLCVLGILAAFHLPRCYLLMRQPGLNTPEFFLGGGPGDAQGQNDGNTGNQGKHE", "assay": "activation of the T1R2/T1R3 receptor", "type": "cell-based", "source_text": "The present isolated compounds have been tested and shown sweet taste modifying activities."}, "[2]": {"details": "4% sucrose vs 0% sucrose + 100 ppm compound, pH 7.1, total 36"}, "[3]": {"details": "4% sucrose vs 0% sucrose + 125 ppm compound, pH 7.1, total 42"}, "[4]": {"details": "4% sucrose vs 0% sucrose + 150 ppm compound, pH 7.1, total 36"}, "[5]": {"details": "4% sucrose vs 0% sucrose + 87 ppm compound, LSB pH 7.1, total 42"}}, "data": [{"compound": "C=C1C[C@@]23CC[C@H]4[C@@](C)(CCC[C@@]4(C)C(=O)O[C@@H]4O[C@H](CO)[C@@H](O)[C@H](O)[C@H]4O)[C@@H]2CC[C@]1(O[C@@H]1O[C@H](CO)[C@@H](O)[C@H](O[C@@H]2O[C@H](CO)[C@@H](O)[C@H](O)[C@H]2O)[C@H]1O[C@@H]1O[C@H](CO)[C@@H](O)[C@H](O)[C@H]1O)C3", "note": "[Reb A, Rebaudioside A]", "values": [{"measurement": "concentration equivalent to 4% sucrose", "setting": "[1]; 2-AFC, pH 7.1", "value": "125 ppm Reb A is equivalent to 4% sucrose."}, {"measurement": "Sample selected as sweeter by panelists: 0% Sucrose + Cmpd", "setting": "[1]; [2]", "value": 8}, {"measurement": "Sample selected as sweeter by panelists: 4% Sucrose", "setting": "[1]; [2]", "value": 28}, {"measurement": "Sample selected as sweeter by panelists: 0% Sucrose + Cmpd", "setting": "[1]; [3]", "value": 22}, {"measurement": "Sample selected as sweeter by panelists: 4% Sucrose", "setting": "[1]; [3]", "value": 20}, {"measurement": "Sample selected as sweeter by panelists: 0% Sucrose + Cmpd", "setting": "[1]; [4]", "value": 24}, {"measurement": "Sample selected as sweeter by panelists: 4% Sucrose", "setting": "[1]; [4]", "value": 12}]}, {"compound": "Polypodoside D", "values": [{"measurement": "EC50", "setting": "T1R2/T1R3 receptor", "value": 4.15, "unit": "µM"}, {"measurement": "Sample selected as sweeter by panelists: 0% Sucrose + Cmpd", "setting": "[1]; [5]", "value": 18}, {"measurement": "Sample selected as sweeter by panelists: 4% Sucrose", "setting": "[1]; [5]", "value": 24}, {"measurement": "sweetness of 4% Sucrose compared with the sample (in words)", "setting": "[1]; 4% sucrose vs LSB + 87 ppm compound, pH ~7.1", "value": "not significantly different in sweetness"}, {"measurement": "sweet taste and potency in sensory studies (in words)", "setting": "[1]; compared with Rebaudioside A", "value": "has a sweet taste and demonstrates higher potency than Rebaudioside A"}]}, {"compound": "COCC(C1CCC(C)C(OC2OC(C)C(O)C(O)C2O)O1)C1CCC2C3=CC(=O)C4CC(OC5OC(CO)C(O)C(O)C5O)CCC4(C)C3CCC21C", "note": "(centres unmarked) [Polypodoside E]", "values": [{"measurement": "EC50", "setting": "T1R2/T1R3 receptor", "value": 18.4, "unit": "µM"}]}, {"compound": "CC1CCC(C(C)C2CCC3C4=CC(=O)C5CC(OC6OC(CO)C(OC7OC(C)C(O)C(O)C7O)C(O)C6O)CCC5(C)C4CCC32C)OC1OC1OC(C)C(O)C(O)C1O", "note": "(centres unmarked) [Polypodoside G]", "values": [{"measurement": "EC50", "setting": "T1R2/T1R3 receptor", "value": 18.7, "unit": "µM"}]}]}
